The text below walks through data of patent US20040204443A1, “Method for inducing pain relief using imidazo[1,2-a]pyridine derivatives” (priority 2003, published 2004).

Data set [1] relates to intense, bilateral pain in both feet. Briefly: Case report: patient with bilateral foot pain, oral drug treatment. The data set is classed as in vivo, human patient. As to conditions: for decrease in pain: foot pain from stretched plantar fascia, earlier drug treatments. How it is done: Additionally, the patient was treated with topical lidocaine and with a tens machine.

For data set [2] the following is noted: has been reported; cited from earlier work.
The conditions of data set [3]: may be eliminated more slowly in obese individuals; cited from earlier work.
Data set [4] concerns intense, bilateral pain in both feet. In words: Case report: same foot-pain patient, topical application in a cream. In kind it is in vivo, human patient. The conditions noted are these: applied topically in a cream.
Data set [5] concerns pain in patient with metastatic cancer. Briefly: Case report: second patient with metastatic cancer pain. In kind it is in vivo, human patient. An excerpt:
A second patient with metastatic cancer was also experiencing pain and had reported little or no relief from common analgesics.

On to `CNCCC=C1c2ccccc2CCc2ccccc21` [Parmelar, nortryptiline], for which the decrease in pain entry in data set [1] (person) is “only the latter showing any decrease in pain”.

`CN(C)CCC=C1c2ccccc2CCc2ccccc21` [Elavil, amitryptiline]: the decrease in pain entry in data set [1] (person) was “only the latter showing any decrease in pain”.

Take `NCC1(CC(=O)O)CCCCC1` [Neurontin]: the decrease in pain entry in data set [1] (person) is given as “only the latter showing any decrease in pain”.

With `CC1(C)O[C@@H]2[C@@H](CO[C@@]3(COS(N)(=O)=O)OC(C)(C)O[C@@H]23)O1` [Topamax], the decrease in pain result in data set [1] (person) is reported as “only the latter showing any decrease in pain”.

Take `Nc1nnc(-c2cccc(Cl)c2Cl)c(N)n1` [Lamictal]: in data set [1] (person), the decrease in pain entry is listed as “only the latter showing any decrease in pain”.

Regarding `COc1cccc(C2(O)CCCCC2CN(C)C)c1` (centres unmarked) [Ultram], the decrease in pain result in data set [1] (person) was “only the latter showing any decrease in pain”.

`Cc1ccc(-c2nc3ccc(C)cn3c2CC(=O)N(C)C)cc1` [AMBIEN, N,N,6-trimethyl-2-p-tolyl-imidazo[1,2-a]pyridine-3-acetamide]: in data set [2], the “time in which metabolized” value was 6 to 8 h. The lipophilicity entry in data set [3] is “lipophilic”. Besides, the “pain relief after topical application” value in data set [4] is given as “reported pain relief”. In data set [5], the analgesic effect result is “marked analgesic effect”. Moreover, the “duration of pain abatement” value in data set [1] (obese person, 10 mg H.S.) was in the range of 12 to 14 h. Also, the “other foot pains (arch, heel, cuboid area)” value in data set [1] (person) is “ameliorated”. For the same compound, the effective dosage entry in data set [1] (person, 10 mg H.S.) is reported as “about 0.08 mg per kg”. The abatement of pain result in data set [1] (person, 10 mg H.S., able to walk prior to retiring) was “noticeable abatement of pain”.
